The subject of this assay is anesthetized rats. The experiment in a line: Anesthetized rat spirometry screening assay (ventilatory activity, minute volume). In kind it is in vivo. Conditions: increase in minute volume (VE); for change in vivo at 0.3 mg/kg: 0.3 mg/kg IV bolus, read-out: VE % Inc @ 0.3 mg/kg IV; for change in vivo at 3 mg/kg: 3.0 mg/kg IV bolus, read-out: VE % Inc @ 3.0 mg/kg IV. The essentials:
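Urethane-anesthetized (1.5 g/kg i.v.) rats with tracheal cannula to pneumotachometer; minute volume derived from respiratory rate × tidal volume. Compounds given as i.v. bolus at 0.1 and/or 0.3 and/or 3 mg/kg, monitored at least 6 min; data as 30 s averages.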

Counter-ions that a name gives are not always drawn.

With `CCCNc1nc(NC)c2nc(NCC(C)O)nc(NC)c2n1` (centres unmarked) [Compound 95, 1-(4,8-Bis-methylamino-6-propylamino-pyrimido[5,4-d]-pyrimidin-2-ylamino)-propan-2-ol], the change in vivo at 0.3 mg/kg stood at 138%.

`CCNc1nc(NC)nc2c(NCCCO)nc(NC)nc12` [Compound 67a, 3-(8-Ethylamino-2,6-bis-methylamino-pyrimido[5,4-d]-pyrimidin-4-ylamino)-propan-1-ol Hydrochloride]: the change in vivo at 0.3 mg/kg was determined as 7% and the change in vivo at 3 mg/kg turned out to be 136%.

Consider `CCCNc1nc(NCC(F)F)nc2c(NCC(C)(C)O)nc(NCC(F)F)nc12` [Compound 33a, 1-[2,6-Bis-(2,2-difluoro-ethylamino)-8-propylamino-pyrimido[5,4-d]-pyrimidin-4-ylamino]-2-methyl-propan-2-ol Hydrochloride], for which the change in vivo at 0.3 mg/kg stood at 23% and the change in vivo at 3 mg/kg is 115%.

`CNc1nc(NCC(C)(C)O)c2nc(NC)nc(NCc3ccccc3)c2n1` [Compound 44a, 1-(8-Benzylamino-2,6-bis-methylamino-pyrimido[5,4-d]pyrimidin-4-ylamino)-2-methyl-propan-2-ol Hydrochloride]: the change in vivo at 0.3 mg/kg stood at 122% and the change in vivo at 3 mg/kg worked out at 132%.

With `CCCNc1nc(NC)c2nc(N[C@@H]3CCCC[C@@H]3O)nc(NC)c2n1` [Compound 135, (1S,2R)-2-(4,8-Bis-methylamino-6-propylamino-pyrimido[5,4-d]pyrimidin-2-ylamino)-cyclohexanol], the change in vivo at 0.3 mg/kg is 22% and the change in vivo at 3 mg/kg worked out at 142%.

Take `CCCNc1nc(NC)nc2c(N[C@@H]3CCC[C@H]3O)nc(NC)nc12` [Compound 87, (1R,2R)-2-(2,6-Bis-methylamino-8-propylamino-pyrimido[5,4-d]pyrimidin-4-ylamino)-cyclopentanol]: the change in vivo at 0.3 mg/kg worked out at 39% and the change in vivo at 3 mg/kg was found to be 129%.

For the compound `CNc1nc(NCC(C)(C)O)c2nc(NC)nc(NCC(F)F)c2n1` [Compound 36a, 1-[8-(2,2-Difluoro-ethylamino)-2,6-bis-methylamino-pyrimido[5,4-d]pyrimidin-4-ylamino]-2-methyl-propan-2-ol Hydrochloride], the change in vivo at 0.3 mg/kg was found to be 34%.

On to `CCCNc1nc(NC)nc2c(NCC(C)O)nc(NC)nc12` (centres unmarked) [Compound 10a, 1-(2,6-Bis-methylamino-8-propylamino-pyrimido[5,4-d]-pyrimidin-4-ylamino)-propan-2-ol hydrochloride], for which the change in vivo at 0.3 mg/kg amounted to 93%.

With `CCCNc1nc(NC)c2nc(N[C@@H]3CCC[C@H]3O)nc(NC)c2n1` [Compound 141, (1R,2R)-2-(4,8-Bis-methylamino-6-propylamino-pyrimido[5,4-d]pyrimidin-2-ylamino)-cyclopentanol], the change in vivo at 0.3 mg/kg is 71% and the change in vivo at 3 mg/kg was determined as 146%.

For the compound `CCCNc1nc(NC)nc2c(N[C@H]3CCCC[C@@H]3O)nc(NC)nc12` [Compound 83, (1S,2S)-2-(2,6-Bis-methylamino-8-propylamino-pyrimido[5,4-d]pyrimidin-4-ylamino)-cyclohexanol], the change in vivo at 0.3 mg/kg came out at 176% and the change in vivo at 3 mg/kg was 153%.

For `CNc1nc(NC[C@H](C)O)nc2c(NC)nc(NCC3CC3)nc12` [Compound 142, (S)-1-[6-(Cyclopropylmethyl-amino)-4,8-bis-methylamino-pyrimido[5,4-d]pyrimidin-2-ylamino]-propan-2-ol], the change in vivo at 0.3 mg/kg amounted to 2% and the change in vivo at 3 mg/kg is 62%.

Consider `CCCNc1nc(NC)nc2c(NC(C)(C)CO)nc(NC)nc12` [Compound 16a, 2-(2,6-Bis-methylamino-8-propylamino-pyrimido[5,4-d]-pyrimidin-4-ylamino)-2-methyl-propan-1-ol hydrochloride], for which the change in vivo at 0.3 mg/kg is 80%.

Consider `CCCNc1nc(NCC)c2nc(NCCO)nc(NCC)c2n1` [Compound 162, 2-(4,8-Bis-ethylamino-6-propylamino-pyrimido[5,4-d]pyrimidin-2-ylamino)-ethanol], for which the change in vivo at 0.3 mg/kg stood at 187% and the change in vivo at 3 mg/kg came to 216%.

For the compound `C=CCNc1nc(NC)c2nc(N(CCC)C[C@H](C)O)nc(NC)c2n1` [Compound 155, (S)-1-[(6-Allylamino-4,8-bis-methylamino-pyrimido[5,4-d]-pyrimidin-2-yl)-propyl-amino]-propan-2-ol], the change in vivo at 0.3 mg/kg came to 14% and the change in vivo at 3 mg/kg turned out to be 79%.

For `CCNc1nc(NC[C@H](C)O)nc2c(NCC)nc(N)nc12` [Compound 172, (S)-1-(6-Amino-4,8-bis-ethylamino-pyrimido[5,4-d]-pyrimidin-2-ylamino)-propan-2-ol], the change in vivo at 0.3 mg/kg worked out at 5% and the change in vivo at 3 mg/kg worked out at 155%.

As to `CCCNc1nc(NC)nc2c(NCC(O)CO)nc(NC)nc12` (centres unmarked) [Compound 75a, 3-(2,6-Bis-methylamino-8-propylamino-pyrimido[5,4-d]pyrimidin-4-ylamino)-propane-1,2-diol Hydrochloride], the change in vivo at 0.3 mg/kg came to 158% and the change in vivo at 3 mg/kg amounted to 180%.

With `CCCNc1nc(NC)c2nc(NCCO)nc(NC)c2n1` [Compound 91, 2-(4,8-Bis-methylamino-6-propylamino-pyrimido[5,4-d]pyrimidin-2-ylamino)-ethanol], the change in vivo at 0.3 mg/kg was determined as 16%.

As to `CCCNc1nc(NC)c2nc(NCC(O)CC)nc(NC)c2n1` (centres unmarked) [Compound 117, 1-(4,8-Bis-methylamino-6-propylamino-pyrimido[5,4-d]pyrimidin-2-ylamino)-butan-2-ol], the change in vivo at 0.3 mg/kg came out at 150% and the change in vivo at 3 mg/kg came to 162%.

Consider `CC[C@@H](C)Nc1nc(NC)c2nc(NCC(C)(C)O)nc(NC)c2n1` [Compound 99, 1-[6-((R)-sec-Butylamino)-4,8-bis-methylamino-pyrimido[5,4-d]-pyrimidin-2-ylamino]-2-methyl-propan-2-ol], for which the change in vivo at 0.3 mg/kg came out at 25% and the change in vivo at 3 mg/kg turned out to be 61%.

In the case of `C=C(C)CNc1nc(NC)c2nc(NC[C@@H](C)O)nc(NC)c2n1` [Compound 158, (R)-1-[6-(2-Methyl-allylamino)-4,8-bis-methylamino-pyrimido[5,4-d]-pyrimidin-2-ylamino]-propan-2-ol], the change in vivo at 0.3 mg/kg worked out at 68% and the change in vivo at 3 mg/kg is 120%.

As to `CCCNc1nc(NC)nc2c(N[C@H]3CCCC[C@H]3O)nc(NC)nc12` [Compound 82, (1R,2S)-2-(2,6-Bis-methylamino-8-propylamino-pyrimido[5,4-d]pyrimidin-4-ylamino)-cyclohexanol], the change in vivo at 0.3 mg/kg is 102% and the change in vivo at 3 mg/kg was 132%.

In the case of `CCCNc1nc(NC)c2nc(N[C@H]3CCC[C@@H]3O)nc(NC)c2n1` [Compound 139, (1S,2S)-2-(4,8-Bis-methylamino-6-propylamino-pyrimido[5,4-d]pyrimidin-2-ylamino)-cyclopentanol], the change in vivo at 0.3 mg/kg came out at 90% and the change in vivo at 3 mg/kg was 114%.

`CCCNc1nc(NC)c2nc(N[C@@H]3CCCC[C@H]3O)nc(NC)c2n1` [Compound 137, (1R,2R)-2-(4,8-Bis-methylamino-6-propylamino-pyrimido[5,4-d]pyrimidin-2-ylamino)-cyclohexanol]: the change in vivo at 0.3 mg/kg came out at 22% and the change in vivo at 3 mg/kg is 103%.

(Values after patent US10294228B2, “Breathing control modulating compounds, and methods of making and using same” (NEURAD LTD., priority 2015, dated 2019).)
